pIC50: −log10 of the molar value.
Experiments:
Format in all cases: cell-based
SKOV3 cell line = assay: CellTiter-Blue cell viability assay, single agent, SKOV3; details: Homo sapiens, SK-OV-3, SKOV3 ovarian cancer cells, 72 hours treatment
Source text: (§1) Cell viability in the presence of varying concentrations of the above listed compounds at different time points was used to assess cytotoxicity and the effect of the compounds on cell proliferation. The SKOV3 cell line was originally isolated in 1973 from the ascitic fluid of a patient with an ovarian cancer. SKOV3 is a hypodiploid human cell line. SKOV3 cells are resistant to tumor necrosis factor and to several cytotoxic drugs including diphtheria toxin, cis-platinum and adriamycin. The A2780 cell line is a human ovarian adenocarcinoma cell line originally derived from a biopsy from an untreated patient. The A2780/CP cell line is a line derived from the A2780 cell line selected for resistance to cis-platinum.
(§2) Cell viability was measured by the CellTiter-Blue® cell viability assay Promega (Madison, Wis.). This procedure measures the conversion of the indicator dye (resazurin) to resorufin, an indicator of cell viability. Following treatment, growth media was removed and cells were incubated with 20 μl of CellTiter-Blue® Reagent and growth media for 1-4 hours at 37° C. Fluorescence values were measured at 535/590 nm using a Beckman-Coulter DTX-880 microplate reader.
(§3) Cells were grown to 70% confluency, trypsinized, counted, and seeded in 96 well flat-bottom plates at a final concentration of 2.5×10^3-5×10^3 cells/well (Day 0). Cells were allowed to incubate in growth media for 24 hours to allow for maximum adhesion. Treatment with the test agents or standard agents began on Day 1 and continued for 72 hours. At the 72 hour timepoint, treatment containing media was removed. Viable cell numbers are quantified by the CellTiter-Blue® cell viability assay as described above. Experiments were repeated at least twice with the same concentrations to determine growth inhibitory activity. Results from these studies were used to calculate an IC50 value (concentration of drug that inhibits cell growth by 50 percent of control) for each compound.
(§4) For single agent and combination studies, data from each experiment was collected and expressed as % Cell Expansion using the following calculation: % Cell Expansion=(ftest/fvehicle)×100
(§5) Where ftest is the fluorescence of the tested sample, and fvehicle is the fluorescence of the vehicle in which the drug is dissolved. Dose response graphs and IC50 values were generated using Prism 4 software (GraphPad) using the following equation: […]

A2780 cell line = assay: CellTiter-Blue cell viability assay, single agent, A2780; details: Homo sapiens, A2780 ovarian adenocarcinoma cells, 72 hours treatment
Source text: as §1, §2, §3, §4, §5

A2780/CP cell line = assay: CellTiter-Blue cell viability assay, single agent, A2780/CP; details: Homo sapiens, A2780C/P, A2780/CP cis-platinum resistant cells, 72 hours treatment
Source text: as §1, §2, §3, §4, §5

| pIC50 (SKOV3 cell line) | pIC50 (A2780 cell line) | pIC50 (A2780/CP cell line) | SMILES |
| --- | --- | --- | --- |
| 7.15 | 7.40 | 7.70 | COC(C(=O)Nc1ncc(C(=O)NO)s1)c1ccccc1 (stereo not shown) [Compound 7, N-hydroxy-2-(2-methoxy-2-phenylacetamido)thiazole-5-carboxamide] |
| 7.70 | 10.40 | 9.52 | CCC(C(=O)Nc1ccc(C(=O)NO)cc1)c1ccc(OC)cc1 (stereo not shown) [Compound 15, N-hydroxy-4-(2-(4-methoxyphenyl)butanamido)benzamide] |
| 7.00 | 6.36 | 6.85 | CCC(C(=O)Nc1ncc(C(=O)NO)s1)c1ccc(-c2cncnc2)cc1 (stereo not shown) [Compound 18, N-hydroxy-2-(2-(4-(pyrimidin-5-yl)phenyl)butanamido)thiazole-5-carboxamide] |
| 6.05 | 7.80 | 7.15 | COCCC(C(=O)Nc1ccc(C(=O)NO)cc1)c1ccccc1 (stereo not shown) [Compound 27, N-hydroxy-4-(4-methoxy-2-phenylbutanamido)benzamide] |
| 7.40 | 7.52 | 8.52 | CC(C)C(C(=O)Nc1ccc(C(=O)NO)cc1)c1ccc(Cl)cc1 (stereo not shown) [Compound 12, 4-(2-(4-chlorophenyl)-3-methylbutanamido)-N-hydroxybenzamide] |
| 7.70 | 7.22 | 7.40 | CC(C)C(C(=O)Nc1ncc(C(=O)NO)s1)c1ccc(O)cc1 (stereo not shown) [Compound 21, N-hydroxy-2-(2-(4-hydroxyphenyl)-3-methylbutanamido)thiazole-5-carboxamide] |
| 6.30 | 6.52 | 5.49 | O=C(CCc1ccccc1)Nc1ncc(C(=O)NO)s1 [Compound 6, N-hydroxy-2-(3-phenylpropanamido)thiazole-5-carboxamide] |
| 7.52 | 7.52 | 8.32 | CC(C(=O)Nc1ncc(C(=O)NO)s1)c1ccccc1 (stereo not shown) [Compound 9, N-hydroxy-2-(2-phenylpropanamido)thiazole-5-carboxamide] |
| 9.70 | > 10.00 | 9.05 | CCC(C(=O)Nc1ncc(C(=O)NO)s1)c1ccc(-c2ccccc2)cc1 (stereo not shown) [Compound 17, 2-(2-(biphenyl-4-yl)butanamido)-N-hydroxythiazole-5-carboxamide] |
| 7.52 | 6.22 | 6.52 | CCC(C(=O)Nc1ncc(C(=O)NO)s1)c1cccc(OC)c1 (stereo not shown) [Compound 22, N-hydroxy-2-(2-(3-methoxyphenyl)butanamido)thiazole-5-carboxamide] |
| 8.37 | 8.62 | 7.00 | CCC(C(=O)Nc1ncc(C(=O)NO)s1)c1cccc(F)c1 (stereo not shown) [Compound 20, 2-(2-(3-fluorophenyl)butanamido)-N-hydroxythiazole-5-carboxamide] |

More lines, now with the values behind:

| SMILES | pIC50 (SKOV3 cell line) | pIC50 (A2780 cell line) | pIC50 (A2780/CP cell line) |
| --- | --- | --- | --- |
| CCC(C(=O)Nc1ccc(C(=O)NO)cc1)c1ccc(Br)cc1 (stereo not shown) [Compound 25, 4-(2-(4-bromophenyl)butanamido)-N-hydroxybenzamide] | 7.00 | 8.96 | 7.70 |
| CCC(C(=O)Nc1ncc(C(=O)NO)s1)c1ccc(F)cc1 (stereo not shown) [Compound 19, 2-(2-(4-fluorophenyl)butanamido)-N-hydroxythiazole-5-carboxamide] | 8.05 | > 10.00 | 8.52 |
| CCC(C(=O)Nc1ncc(C(=O)NO)s1)c1ccccc1 (stereo not shown) [Compound 2, N-hydroxy-2-(2-phenylbutanamido)thiazole-5-carboxamide] | 7.34 | 9.30 | 8.40 |
| CC(C)C(C(=O)Nc1ncc(C(=O)NO)s1)c1ccc(Cl)cc1 (stereo not shown) [Compound 10, 2-(2-(4-chlorophenyl)-3-methylbutanamido)-N-hydroxythiazole-5-carboxamide] | 8.40 | 8.77 | 8.21 |
| CC(C)(Cc1ccccc1)C(=O)Nc1ncc(C(=O)NO)s1 [Compound 11, 2-(2,2-dimethyl-3-phenylpropanamido)-N-hydroxythiazole-5-carboxamide] | 5.12 | 5.42 | 5.42 |
| CCC(C(=O)Nc1ncc(C(=O)NO)s1)c1ccccc1OC (stereo not shown) [Compound 23, N-hydroxy-2-(2-(2-methoxyphenyl)butanamido)thiazole-5-carboxamide] | 5.64 | 7.00 | 6.30 |
| COCCC(C(=O)Nc1ncc(C(=O)NO)s1)c1ccc(-c2ccccc2)cc1 (stereo not shown) [Compound 24, 2-(2-(biphenyl-4-yl)-4-methoxybutanamido)-N-hydroxythiazole-5-carboxamide] | 7.52 | 7.70 | 7.77 |
| COCCC(C(=O)Nc1ncc(C(=O)NO)s1)c1ccccc1 (stereo not shown) [Compound 14, N-hydroxy-2-(4-methoxy-2-phenylbutanamido)thiazole-5-carboxamide] | 7.10 | 8.62 | 8.06 |
| CCC(C(=O)Nc1ncc(C(=O)NO)s1)c1ccc(OC)cc1 (stereo not shown) [Compound 8, N-hydroxy-2-(2-(4-methoxyphenyl)butanamido)thiazole-5-carboxamide] | > 10.00 | > 10.00 | > 10.00 |
| O=C(NO)c1cnc(NC(=O)C2(c3ccccc3)CC2)s1 [Compound 3, N-hydroxy-2-(1-phenylcyclopropanecarboxamido)thiazole-5-carboxamide] | 5.39 | 5.92 | 5.12 |
| CCC(C(=O)Nc1ccc(C(=O)NO)cc1)c1ccc(-c2ccccc2)cc1 (stereo not shown) [Compound 26, 4-(2-(biphenyl-4-yl)butanamido)-N-hydroxybenzamide] | 8.96 | 9.52 | 8.77 |
| CC(C)(C(=O)Nc1ncc(C(=O)NO)s1)c1ccccc1 [Compound 4, N-hydroxy-2-(2-methyl-2-phenylpropanamido)thiazole-5-carboxamide] | 5.89 | 6.05 | 5.12 |
| CC(C)C(C(=O)Nc1ncc(C(=O)NO)s1)c1ccccc1 (stereo not shown) [Compound 1, N-hydroxy-2-(3-methyl-2-phenylbutanamido)thiazole-5-carboxamide] | 7.40 |  |  |
| CCC(C(=O)Nc1ncc(C(=O)NO)s1)c1ccc(Br)cc1 (stereo not shown) [Compound 13, 2-(2-(4-bromophenyl)butanamido)-N-hydroxythiazole-5-carboxamide] | 8.60 | 9.30 | 10.10 |
| O=C(Cc1ccccc1)Nc1ncc(C(=O)NO)s1 [Compound 5, N-hydroxy-2-(2-phenylacetamido)thiazole-5-carboxamide] | 5.68 | 6.52 | 5.80 |
